Test results taken from patent US8426425B2, “Aminopyrimidines useful as inhibitors of protein kinases” (Vertex Pharmaceuticals Incorporated, priority 2006, dated 2013).
pKi: −log10 of the molar value.

Molecular target: T1, GSK-3β (AA 1-420) (Homo sapiens, UniProt P49841)
T1 construct: GSK-3β (AA 1-420)
Assay: GSK-3 Inhibition Assay (standard coupled enzyme system)
Format: biochemical
Settings: 20 nM GSK-3β, 20 μM ATP, 300 μM peptide, 30° C.
Experimental: Compounds of the present invention were screened for their ability to inhibit GSK-3β (AA 1-420) activity using a standard coupled enzyme system (Fox et al., Protein Sci. 1998, 7, 2249). Reactions were carried out in a solution containing 100 mM HEPES (pH 7.5), 10 mM MgCl2, 25 mM NaCl, 300 μM NADH, 1 mM DTT and 1.5% DMSO. Final substrate concentrations in the assay were 20 μM ATP (Sigma Chemicals, St Louis, Mo.) and 300 μM peptide (American Peptide, Sunnyvale, Calif.). Reactions were carried out at 30° C. and 20 nM GSK-3β. Final concentrations of the components of the coupled enzyme system were 2.5 mM phosphoenolpyruvate, 300 μM NADH, 30 μg/ml pyruvate kinase and 10 μg/ml lactate dehydrogenase.
An assay stock buffer solution was prepared containing all of the reagents listed above with the exception of ATP and the test compound of the present invention. The assay stock buffer solution (175 μl) was incubated in a 96 well plate with 5 μl of the test compound of the present invention at final concentrations spanning 0.002 μM to 30 μM at 30° C. for 10 min. Typically, a 12-point titration was conducted by preparing serial dilutions (from 10 mM compound stocks) with DMSO of the test compounds of the present invention in daughter plates. The reaction was initiated by the addition of 20 μl of ATP (final concentration 20 μM). Rates of reaction were obtained using a Molecular Devices Spectramax plate reader (Sunnyvale, Calif.) over 10 min at 30° C. The Ki values were determined from the rate data as a function of inhibitor concentration.

T1 sequence (P49841 whole entry, species assumed, the tested form may be a part): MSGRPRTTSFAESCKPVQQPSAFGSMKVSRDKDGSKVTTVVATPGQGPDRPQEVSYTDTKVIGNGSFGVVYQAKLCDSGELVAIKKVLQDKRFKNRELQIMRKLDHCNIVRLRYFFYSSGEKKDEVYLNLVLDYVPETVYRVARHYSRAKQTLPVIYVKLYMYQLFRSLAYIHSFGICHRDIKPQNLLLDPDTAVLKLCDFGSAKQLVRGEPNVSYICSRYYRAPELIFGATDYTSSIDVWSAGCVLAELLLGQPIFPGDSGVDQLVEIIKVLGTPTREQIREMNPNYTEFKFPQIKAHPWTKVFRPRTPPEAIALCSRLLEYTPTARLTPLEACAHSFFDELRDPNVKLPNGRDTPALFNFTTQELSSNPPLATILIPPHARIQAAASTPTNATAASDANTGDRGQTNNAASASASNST

| pKi | SMILES |
| --- | --- |
| > 7.30 | Cc1cc(Nc2cc(N3CCC3)nc(C3CCCCC3)n2)n[nH]1 [Compound I-2] |
| > 7.30 | Fc1cnc2[nH]nc(Nc3cc(N4CCC4)nc(C4CCCCC4)n3)c2c1 [Compound I-1, N-(6-(azetidin-1-yl)-2-cyclohexylpyrimidin-4-yl)-5-fluoro-1H-pyrazolo[3,4-b]pyridin-3-amine] |
| 7.00 to 7.30 | Fc1ccc2[nH]nc(Nc3cc(N4CCC4)nc(C4CCCCC4)n3)c2c1 [Compound I-3] |
